Laboratory results reported in patent US9833497B2, “Human originated EGF domain proteins and use of the same” (CHENGDU SOURCEBIO LIMITED-LIABILITY COMPANY, priority 2013, dated 2017).

What was measured:
Type in all cases: cell-based
Aeromonas hydrophila = experiment: MIC against Gram-negative bacteria: Aeromonas hydrophila; conditions: for MIC (μg/mL) A. hydrophila / MIC A. hydrophila: 5×10^5 CFU/mL
Summary of the method: (§1)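 Read-out is absence of bacterial growth, with MIC set at the lowest recombinant protein concentration achieving it. Bacteria, pre-grown in LB to McFarland 0.5 and resuspended, were exposed at 5×10^5 CFU/mL to two-fold diluted human EGF domain proteins in triplicate at 37° C, 175 rpm.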

E. coli DH5α = experiment: Antibacterial activity: MIC and growth curve against E. coli DH5α in 96-well plate; conditions: minimal inhibitory concentration against E. coli DH5α; 96-well plate, 5×10^5 CFU/mL, 37° C., judged after 8 h
Summary of the method: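 Log-phase bacteria (OD600 ~0.5) resuspended in LB at 5×10^5 CFU/mL, exposed to recombinant protein at 50, 25, 12.5 μg/mL final in triplicate, 37 °C shaking at 175 rpm. OD600 read every 30 min; MIC is lowest concentration showing no growth.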

Moraxella catarrhalis = experiment: MIC against Gram-negative bacteria: Moraxella catarrhalis; conditions: for MIC (μg/mL) M. catarrhalis / MIC M. catarrhalis: 5×10^5 CFU/mL
Summary of the method: as §1

Pseudomonas aeruginosa = experiment: MIC against Gram-negative bacteria: Pseudomonas aeruginosa; conditions: for MIC (μg/mL) P. aeruginosa / MIC P. aeruginosa: 5×10^5 CFU/mL
Summary of the method: as §1

Klebsiella pneumonia = experiment: MIC against Gram-negative bacteria: Klebsiella pneumonia; conditions: for MIC (μg/mL) K. pneumonia / MIC K. pneumonia: 5×10^5 CFU/mL
Summary of the method: as §1

Proteus mirabilis = experiment: MIC against Gram-negative bacteria: Proteus mirabilis; conditions: for MIC (μg/mL) P. mirabilis / MIC P. mirabilis: 5×10^5 CFU/mL
Summary of the method: as §1

E. coli BL21 = experiment: MIC against Gram-negative bacteria: E. coli BL21; conditions: for MIC (μg/mL) E. coli BL21 / MIC E. coli BL21: 5×10^5 CFU/mL
Summary of the method: as §1

Citrobacter diversus = experiment: MIC against Gram-negative bacteria: Citrobacter diversus; conditions: for MIC (μg/mL) C. diversus / MIC C. diversus: 5×10^5 CFU/mL
Summary of the method: as §1

Enterobacter cloacae = experiment: MIC against Gram-negative bacteria: Enterobacter cloacae; conditions: for MIC (μg/mL) E. cloacae / MIC E. cloacae: 5×10^5 CFU/mL
Summary of the method: as §1

Serratia marcescens = experiment: MIC against Gram-negative bacteria: Serratia marcescens; conditions: for MIC (μg/mL) S. marcescens / MIC S. marcescens: 5×10^5 CFU/mL
Summary of the method: as §1

Proteus vulgaris = experiment: MIC against Gram-negative bacteria: Proteus vulgaris; conditions: for MIC (μg/mL) P. vulgaris / MIC P. vulgaris: 5×10^5 CFU/mL
Summary of the method: as §1

[1] = A. hydrophila, 10 h cultivation at 37° C.
[2] = M. catarrhalis, 10 h cultivation at 37° C.
[3] = P. aeruginosa, 10 h cultivation at 37° C.
[4] = K. pneumonia, 10 h cultivation at 37° C.
[5] = P. mirabilis, 10 h cultivation at 37° C.
[6] = E. coli BL21, 10 h cultivation at 37° C.
[7] = C. diversus, 10 h cultivation at 37° C.
[8] = E. cloacae, 10 h cultivation at 37° C.
[9] = S. marcescens, 10 h cultivation at 37° C.
[10] = P. vulgaris, 10 h cultivation at 37° C.
[11] = Aeromonas hydrophila, 96-well plate, 37° C., 10 h
[12] = Moraxella catarrhalis, 96-well plate, 37° C., 10 h
[13] = Pseudomonas aeruginosa, 96-well plate, 37° C., 10 h
[14] = Klebsiella pneumonia, 96-well plate, 37° C., 10 h
[15] = Proteus mirabilis, 96-well plate, 37° C., 10 h
[16] = E. coli BL21, 96-well plate, 37° C., 10 h
[17] = Citrobacter diversus, 96-well plate, 37° C., 10 h
[18] = Enterobacter cloacae, 96-well plate, 37° C., 10 h
[19] = Serratia marcescens, 96-well plate, 37° C., 10 h
[20] = Proteus vulgaris, 96-well plate, 37° C., 10 h
[21] = 10 h cultivation at 37° C., two-fold serial dilution

PRT961 (DVDECASTPCRNGAKCVDQPDGYECRCAEGFEGTLCD; listed as Homo sapiens)
12.5 mg/L: MIC (Aeromonas hydrophila; [1]) | MIC (E. coli DH5α) | MIC (Enterobacter cloacae; [8]) | MIC (Proteus vulgaris; [10])
50 mg/L: MIC (Proteus mirabilis; [5])
100 mg/L: MIC (Pseudomonas aeruginosa; [3])
25 mg/L: MIC (Moraxella catarrhalis; [2]) | MIC (Klebsiella pneumonia; [4]) | MIC (E. coli BL21; [6]) | MIC (Citrobacter diversus; [7]) | MIC (Serratia marcescens; [9])

PRT133 (CRGHCSSYGKLCRNGGKCRERPIGFFCDCTFSAYTGPFCS; listed as Homo sapiens)
50 µg/mL: MIC (μg/mL) P. aeruginosa (Pseudomonas aeruginosa; [13]) | MIC (μg/mL) C. diversus (Citrobacter diversus; [17]) | MIC (μg/mL) P. vulgaris (Proteus vulgaris; [20])
50 mg/L: MIC (E. coli DH5α)
25 µg/mL: MIC (μg/mL) A. hydrophila (Aeromonas hydrophila; [11]) | MIC (μg/mL) M. catarrhalis (Moraxella catarrhalis; [12]) | MIC (μg/mL) K. pneumonia (Klebsiella pneumonia; [14])
12.5 µg/mL: MIC (μg/mL) P. mirabilis (Proteus mirabilis; [15]) | MIC (μg/mL) E. coli BL21 (E. coli BL21; [16]) | MIC (μg/mL) E. cloacae (Enterobacter cloacae; [18]) | MIC (μg/mL) S. marcescens (Serratia marcescens; [19])

PRT638 (DVNECELLSGVCGEAFCENVEGSFLCVCADENQEYSPMTGQCR; listed as Homo sapiens)
25 mg/L: MIC (E. coli DH5α) | MIC C. diversus (Citrobacter diversus; 96-well plate, 37° C., 10 h) | MIC E. cloacae (Enterobacter cloacae; 96-well plate, 37° C., 10 h)
50 mg/L: MIC A. hydrophila (Aeromonas hydrophila; 96-well plate, 37° C., 10 h) | MIC P. aeruginosa (Pseudomonas aeruginosa; 96-well plate, 37° C., 10 h) | MIC P. mirabilis (Proteus mirabilis; 96-well plate, 37° C., 10 h) | MIC S. marcescens (Serratia marcescens; 96-well plate, 37° C., 10 h)
12.5 mg/L: MIC M. catarrhalis (Moraxella catarrhalis; 96-well plate, 37° C., 10 h) | MIC K. pneumonia (Klebsiella pneumonia; 96-well plate, 37° C., 10 h) | MIC E. coli BL21 (E. coli BL21; 96-well plate, 37° C., 10 h) | MIC P. vulgaris (Proteus vulgaris; 96-well plate, 37° C., 10 h)

PRT138 (PCHNNATCEDSVDNYTCHCWPGYTGAQCE; listed as Homo sapiens)
50 µg/mL: MIC (μg/mL) E. coli BL21 (E. coli BL21; [16]) | MIC (μg/mL) E. cloacae (Enterobacter cloacae; [18])
100 µg/mL: MIC (μg/mL) M. catarrhalis (Moraxella catarrhalis; [12])
12.5 µg/mL: MIC (μg/mL) P. aeruginosa (Pseudomonas aeruginosa; [13]) | MIC (μg/mL) P. mirabilis (Proteus mirabilis; [15]) | MIC (μg/mL) C. diversus (Citrobacter diversus; [17]) | MIC (μg/mL) P. vulgaris (Proteus vulgaris; [20])
25 µg/mL: MIC (μg/mL) A. hydrophila (Aeromonas hydrophila; [11]) | MIC (μg/mL) K. pneumonia (Klebsiella pneumonia; [14]) | MIC (μg/mL) S. marcescens (Serratia marcescens; [19])
12.5 mg/L: MIC (E. coli DH5α)

PRT155 (APGPCAAQPCRNGGVCTSRPEPDPQHPAPAGEPGYSCTCPAGISGANCQ; listed as Homo sapiens)
12.5 µg/mL: MIC (μg/mL) P. aeruginosa (Pseudomonas aeruginosa; [3]) | MIC (μg/mL) P. mirabilis (Proteus mirabilis; [5]) | MIC (μg/mL) C. diversus (Citrobacter diversus; [7]) | MIC (μg/mL) E. cloacae (Enterobacter cloacae; [8]) | MIC (μg/mL) S. marcescens (Serratia marcescens; [9])
25 µg/mL: MIC (μg/mL) A. hydrophila (Aeromonas hydrophila; [1]) | MIC (μg/mL) M. catarrhalis (Moraxella catarrhalis; [2]) | MIC (μg/mL) K. pneumonia (Klebsiella pneumonia; [4]) | MIC (μg/mL) E. coli BL21 (E. coli BL21; [6]) | MIC (μg/mL) P. vulgaris (Proteus vulgaris; [10])
12.5 mg/L: MIC (E. coli DH5α)

PRT1064 (INECLSRKLSGCSQDCEDLKIGFKCRCRPGFRLKDDGRTCA; listed as Homo sapiens)
12.5 mg/L: MIC K. pneumonia (Klebsiella pneumonia; [21]) | MIC C. diversus (Citrobacter diversus; [21]) | MIC S. marcescens (Serratia marcescens; [21])
25 mg/L: MIC A. hydrophila (Aeromonas hydrophila; [21]) | MIC (E. coli DH5α) | MIC M. catarrhalis (Moraxella catarrhalis; [21]) | MIC P. aeruginosa (Pseudomonas aeruginosa; [21]) | MIC P. vulgaris (Proteus vulgaris; [21])
50 mg/L: MIC P. mirabilis (Proteus mirabilis; [21]) | MIC E. coli BL21 (E. coli BL21; [21]) | MIC E. cloacae (Enterobacter cloacae; [21])
